Test results taken from US11730712B2, “Functionalized long-chain hydrocarbon mono- and di-carboxylic acids and derivatives thereof, and their use for the prevention or treatment of disease” (ESPERVITA THERAPEUTICS, INC., priority 2021, dated 2023).

Tested on: liver fibrosis gene panel (770 genes)
Assay: Nanostring nCounter Fibrosis panel gene expression in liver of DEN-injected mice
Assay type: in vivo, mouse
Details: vs vehicle
Method: Nanostring Analysis. RNA was extracted from paired liver and tumor tissue from vehicle, Compound I-1 (100 mg/kg) and Compound I-32 (100 mg/kg) treated mice using an RNeasy kit (Qiagen, Calif., USA) as per manufacturer's protocol. All RNA samples passed the BioAnalyzer quality control test. The expression of target genes in liver and tumor were analyzed using the nCounter Fibrosis and Cancer Panel (NanoString Technologies, Inc., WA, USA), respectively according to manufacturer's protocol at the McMaster Genomics Facility. Technical and biological normalization against global geometric mean was performed in nSolver 4.0 software (NanoString Technologies). Technical normalization was performed in the nSolver software (version 4.0.70) by normalizing sample target raw counts to the geometric mean of positive control spike-ins. Biological normalization was performed by normalizing sample target raw counts to the geometric mean of selected housekeeping genes (Ppia, Nubp1, Nol7, Armh3, Rplp0, Cnot10, Pgk1, and Acad9). Pathway scores were calculated as the first principal component of the normalized expression values for all genes in each pathway and samples were compiled according to experimental groups to determine average pathway scores. Statistical significance was calculated between experimental groups using multiple t-tests and p-values were corrected for multiple comparisons using Benjamin-Hochberg false discovery rate.
Molecular analysis. To identify the pathways modulated in the liver and tumor tissue, nanostring analysis of fibrosis and cancer, pathways, respectively were completed in an n=8 mice treated with vehicle or Compound I-32 or Compound I-1 at 100 mg/kg.

CC(C)(CCCCc1cccc(CCCCC(C)(C)C(=O)O)c1)C(=O)O [Compound I-32, 6-[3-(5-carboxy-5-methylhexyl)-phenyl]-2,2-dimethylhexanoic acid]
Cpt1a Log2FC (NM_013495, 100 mg/kg): −0.363
Creb3 Log2FC (NM_013497, 100 mg/kg): −0.409
P3h3 Log2FC (NM_013534, 100 mg/kg): −0.96
Rora Log2FC (NM_013646, 100 mg/kg): 0.258
Slc25a10 Log2FC (NM_013770, 100 mg/kg): 0.324
H2-M3 Log2FC (NM_013819, 100 mg/kg): −0.633
Xbp1 Log2FC (NM_013842, 100 mg/kg): −0.29
Col5a1 Log2FC (NM_015734, 100 mg/kg): −0.601
Ero1l Log2FC (NM_015774, 100 mg/kg): 0.269
Cfhr1 Log2FC (NM_015780, 100 mg/kg): −0.283
Isg15 Log2FC (NM_015783, 100 mg/kg): −0.673
C6 Log2FC (NM_016704, 100 mg/kg): −1.04
Irf3 Log2FC (NM_016849, 100 mg/kg): −0.206
Actr1a Log2FC (NM_016860, 100 mg/kg): −0.192
Ywhag Log2FC (NM_018871, 100 mg/kg): 0.265
Fbp1 Log2FC (NM_019395, 100 mg/kg): −0.981
Ppp2ca Log2FC (NM_019411, 100 mg/kg): −0.123
Atf7ip Log2FC (NM_019426, 100 mg/kg): −0.289
Ndufa1 Log2FC (NM_019443, 100 mg/kg): 0.156
Htra2 Log2FC (NM_019752, 100 mg/kg): −0.286
Cpb2 Log2FC (NM_019775, 100 mg/kg): −0.467
Uba52 Log2FC (NM_019883, 100 mg/kg): 0.433
Ube2d2a Log2FC (NM_019912, 100 mg/kg): −0.231
Aldh9a1 Log2FC (NM_019993, 100 mg/kg): 0.467
Angptl4 Log2FC (NM_020581, 100 mg/kg): 0.413
Isg20 Log2FC (NM_020583, 100 mg/kg): −0.491
Abcb11 Log2FC (NM_021022, 100 mg/kg): −0.503
Rps6kb2 Log2FC (NM_021485, 100 mg/kg): −0.398
Cxcl12 Log2FC (NM_021704, 100 mg/kg): −0.535
Apoc3 Log2FC (NM_023114, 100 mg/kg): −0.391
Cxcl16 Log2FC (NM_023158, 100 mg/kg): −0.445
Ern1 Log2FC (NM_023913, 100 mg/kg): −0.451
Sec61b Log2FC (NM_024171, 100 mg/kg): −0.37
Hsbp1 Log2FC (NM_024219, 100 mg/kg): −0.155
Cyp27a1 Log2FC (NM_024264, 100 mg/kg): −0.71
Fabp4 Log2FC (NM_024406, 100 mg/kg): 0.887
Ndufb5 Log2FC (NM_025316, 100 mg/kg): 0.36
Ssr2 Log2FC (NM_025448, 100 mg/kg): −0.208
Psenen Log2FC (NM_025498, 100 mg/kg): −0.154
Ndufc1 Log2FC (NM_025523, 100 mg/kg): 0.363
Cox6b1 Log2FC (NM_025628, 100 mg/kg): 0.405
Uqcrh Log2FC (NM_025641, 100 mg/kg): 0.28
Uqcrfs1 Log2FC (NM_025710, 100 mg/kg): 0.188
Map1lc3a Log2FC (NM_025735, 100 mg/kg): 0.744
Ndufb8 Log2FC (NM_026061, 100 mg/kg): 0.279
Erp29 Log2FC (NM_026129, 100 mg/kg): −0.277
Uqcrb Log2FC (NM_026219, 100 mg/kg): 0.377
Sugt1 Log2FC (NM_026474, 100 mg/kg): 0.15
Atg101 Log2FC (NM_026566, 100 mg/kg): −0.483
Ndufs3 Log2FC (NM_026688, 100 mg/kg): 0.148
Ifi35 Log2FC (NM_027320, 100 mg/kg): −0.447
Pgm2 Log2FC (NM_028132, 100 mg/kg): 0.339
Phykpl Log2FC (NM_028398, 100 mg/kg): −0.288
Pik3cb Log2FC (NM_029094, 100 mg/kg): −0.412
Hcar2 Log2FC (NM_030701, 100 mg/kg): 1.41
Cpn1 Log2FC (NM_030703, 100 mg/kg): 0.351
Slc2a2 Log2FC (NM_031197, 100 mg/kg): −0.47
Lamtor2 Log2FC (NM_031248, 100 mg/kg): 0.189
Dock2 Log2FC (NM_033374, 100 mg/kg): −0.474
Ube2n Log2FC (NM_080560, 100 mg/kg): −0.194
Elovl6 Log2FC (NM_130450, 100 mg/kg): 1.22
Acaca Log2FC (NM_133360, 100 mg/kg): 0.893
Fgg Log2FC (NM_133862, 100 mg/kg): −0.387
Acacb Log2FC (NM_133904, 100 mg/kg): 0.681
Il1rap Log2FC (NM_134103, 100 mg/kg): −0.868
Ptpa Log2FC (NM_138748, 100 mg/kg): 0.222
Mylk Log2FC (NM_139300, 100 mg/kg): −0.532
Fegr4 Log2FC (NM_144559, 100 mg/kg): −0.638
Aldob Log2FC (NM_144903, 100 mg/kg): −0.6
C1s1 Log2FC (NM_144938, 100 mg/kg): −0.755
Txndc5 Log2FC (NM_145367, 100 mg/kg): −0.321
Ldlrap1 Log2FC (NM_145554, 100 mg/kg): −0.189
Jak1 Log2FC (NM_146145, 100 mg/kg): −0.166
C8a Log2FC (NM_146148, 100 mg/kg): −1.37
Pkhdi Log2FC (NM_153179, 100 mg/kg): −1.12
Nckap1l Log2FC (NM_153505, 100 mg/kg): −0.653
Mbtps2 Log2FC (NM_172307, 100 mg/kg): 0.306
Cyp4a12a Log2FC (NM_177406, 100 mg/kg): 1.42
Acaa2 Log2FC (NM_177470, 100 mg/kg): 0.314
Jmjd4 Log2FC (NM_178659, 100 mg/kg): −0.516
Nceh1 Log2FC (NM_178772, 100 mg/kg): 0.444
Hadha Log2FC (NM_178878, 100 mg/kg): 0.903
Mfap3 Log2FC (NM_180599, 100 mg/kg): −0.362
Bst2 Log2FC (NM_198095, 100 mg/kg): 0.494
Acsl4 Log2FC (NM_207625, 100 mg/kg): 0.737
Cflar Log2FC (NM_207653, 100 mg/kg): −0.25
Egfr Log2FC (NM_207655, 100 mg/kg): −0.93
Stat3 Log2FC (NM_213659, 100 mg/kg): −0.686
H2-K1 Log2FC (NM_001001892, 100 mg/kg): −0.168
Kdm2a Log2FC (NM_001001984, 100 mg/kg): −0.255
Cfhr2 Log2FC (NM_001025575, 100 mg/kg): −0.596
Ndufs5 Log2FC (NM_001030274, 100 mg/kg): 0.381
Itga1 Log2FC (NM_001033228, 100 mg/kg): −0.312
Dock1 Log2FC (NM_001033420, 100 mg/kg): −0.347
Xaf1 Log2FC (NM_001037713, 100 mg/kg): −0.701
Banf1 Log2FC (NM_001038231, 100 mg/kg): 0.339
Smurf Log2FC (NM_001038627, 100 mg/kg): −0.969
Seh1l Log2FC (NM_001039088, 100 mg/kg): 0.216
Nrp2 Log2FC (NM_001077403, 100 mg/kg): 0.619
Ptafr Log2FC (NM_001081211, 100 mg/kg): −0.408
Brpf3 Log2FC (NM_001081315, 100 mg/kg): 0.3
Aqp8 Log2FC (NM_001109045, 100 mg/kg): −0.632
Igf1 Log2FC (NM_001111274, 100 mg/kg): −0.588
Itga9 Log2FC (NM_001113514, 100 mg/kg): −0.212
Il1r1 Log2FC (NM_001123382, 100 mg/kg): −1.16
Aldh7a1 Log2FC (NM_001127338, 100 mg/kg): −0.344
Rnf152 Log2FC (NM_001160368, 100 mg/kg): −0.687
Cyfip1 Log2FC (NM_001164661, 100 mg/kg): −0.229
Slc25a13 Log2FC (NM_001177572, 100 mg/kg): −0.179
Syk Log2FC (NM_001198977, 100 mg/kg): −0.772
Cd84 Log2FC (NM_001252472, 100 mg/kg): −0.6
Apoc2 Log2FC (NM_001277944, 100 mg/kg): −0.94
Ncf1 Log2FC (NM_001286037, 100 mg/kg): −0.635
Cd68 Log2FC (NM_001291058, 100 mg/kg): −0.732
Itga5 Log2FC (NM_001314041, 100 mg/kg): −0.402
Col6a3 Log2FC (XM_897036, 100 mg/kg): −0.679
